Measurements published in paper PMC12197871 (Protein Science : A Publication of the Protein Society, 2025).
pKd: −log10 of the molar value. Entries after “also recorded” stand apart in the source; their conditions may differ.

What was measured:
[1] = molecular target: T1, GsLDH (Geobacillus stearothermophilus, UniProt P00344); experiment: Isothermal titration calorimetry of cofactor binding to GsLDH; conditions: for pKd: K d; for pKd / K B × 10^5 / TΔS B / ΔG B / ΔH B / binding stoichiometry n: presence of FBP; for pKd / K B × 10^5 / TΔS B / ΔG B / ΔH B: 30°C; for enthalpy change on titration of the enzyme: absence of FBP
T1 sequence (P00344 whole entry): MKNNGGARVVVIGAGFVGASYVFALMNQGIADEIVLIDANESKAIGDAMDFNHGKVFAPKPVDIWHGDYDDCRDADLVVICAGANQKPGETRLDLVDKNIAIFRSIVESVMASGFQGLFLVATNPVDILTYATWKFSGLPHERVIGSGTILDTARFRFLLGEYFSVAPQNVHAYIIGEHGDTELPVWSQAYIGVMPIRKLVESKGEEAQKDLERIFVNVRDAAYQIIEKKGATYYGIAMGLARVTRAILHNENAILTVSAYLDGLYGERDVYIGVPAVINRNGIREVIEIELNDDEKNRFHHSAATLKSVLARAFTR

[2] = molecular target: T1, GsLDH; experiment: GsLDH kinetic studies; assay type: biochemical; conditions: WT GsLDH

| Compound | pKd ([1]; WT with pyruvate) | pKd ([1]; WT) | K B × 10^5 ([1]; WT with pyruvate) | TΔS B ([1]; WT with pyruvate) [kcal/mol] | ΔG B ([1]; WT with pyruvate) [kcal/mol] | ΔH B ([1]; WT with pyruvate) [kcal/mol] | K B × 10^5 ([1]; WT) | TΔS B ([1]; WT) [kcal/mol] | ΔG B ([1]; WT) [kcal/mol] | ΔH B ([1]; WT) [kcal/mol] | enthalpy change on titration of the enzyme [1] | binding stoichiometry n [1] | fold decrease of K m for pyruvate in the presence of FBP [2] [fold] | fold improvement of catalytic efficiency (k cat/K m) in the presence of FBP [2] [fold] |
| --- | --- | --- | --- | --- | --- | --- | --- | --- | --- | --- | --- | --- | --- | --- |
| NC(=O)c1ccc[n+]([C@@H]2O[C@H](COP(=O)([O-])OP(=O)(O)OC[C@H]3O[C@@H](n4cnc5c(N)ncnc54)[C@H](O)[C@@H]3O)[C@@H](O)[C@H]2O)c1 [NAD^+, oxidized nicotinamide adenine dinucleotide] | 5.80 | 5.52 | 6 ± 2 10^5 M^−1 | -37.0 | -8.0 | -45 ± 2 | 3 ± 2 10^5 M^−1 | -134.4 | -7.6 | -142 ± 20 | did not result in significant enthalpy changes | ~1 | – | – |
| O=C(COP(=O)(O)O)[C@@H](O)[C@H](O)[C@H](O)COP(=O)(O)O [FBP, fructose 1,6‐bisphosphate] | – | – | – | – | – | – | – | – | – | – | – | – | 5.6 | 3.3 |
| reduced nicotinamide adenine dinucleotide [NADH] | – | – | – | – | – | – | 8 ± 2 10^5 M^−1 | -50.8 | -8.2 | -59 ± 4 | did not result in significant enthalpy changes; also recorded: too low to be detected | ~1 | – | – |
